From patent EP4796530A1 (Biocells (Beijing) Biotech Co., Ltd., priority 2023, dated 2025)
Read-outs that look alike come from different tables or passages of the source.

Tests used:
[1] = molecular target: T1, NLRP3 (Mus musculus, UniProt Q8R4B8); test: Inhibition of canonical NLRP3 activation (LPS+ATP/Nig) in J774A.1 cells, IL-1β release by ELISA, single concentration; assay type: cell-based; parameters: The mouse macrophage cell line J774A.1 was used, and LPS was used as the first signal; host or cells: J774A.1 mouse monocyte-macrophage cell line
Description: J774A.1 cells were plated in a 48-well plate at a density of 1.0×10^6 cells/mL, with 300 µL per well. Subsequently, NLRP3 was activated using LPS+5 mM ATP (adenosine triphosphate) or 10 µM Nig (nigericin). […] ATP was purchased from Sigma, Cat. No.: L2654. Nig was purchased from Shanghai Yuanye Bio-Technology Co., Ltd., Cat. No.: S45490.
Experimental groups: a negative control group, an LPS-alone incubation control group, an LPS+ATP or +Nig positive control group, and an example compound experimental group.
After the plated J774A.1 cells adhering to the plate, the culture medium was replaced. For all the groups except the negative control group, the culture medium was completely replaced with cell culture medium containing 1 µg/mL LPS. The negative control group received cell culture medium. Then, all the groups were incubated overnight. 18 h later, the culture medium was replaced again. The culture medium of the example compound experimental group was completely replaced with cell culture medium containing the compounds; while the negative control group, the LPS-alone incubation control group, and the LPS+ATP/Nig positive control group received cell culture medium. 1 h later, the culture mediums of the LPS+ATP/Nig positive control group and the example compound experimental group were completely replaced with cell culture medium containing 5 mM ATP or 10 µM Nig. 1 h later, the cell supernatants were collected for IL-1β detection.
Therefore, the relative change in the amount of IL-1β release may directly reflect NLRP3 inhibitory effect.

[2] = molecular target: T1, NLRP3; test: Inhibition of APOE peptide-induced NLRP3 activation in J774A.1 cells, IL-1β release; assay type: cell-based; parameters: The mouse macrophage cell line J774A.1 was used, and LPS was used as the first signal; host or cells: J774A.1 mouse monocyte-macrophage cell line; conditions: J774.A1, 10 µM compound, 30 µg/mL APOE peptide
Description: J774A.1 cells were plated in a 48-well plate at a density of 1.0×10^6 cells/mL, with 300 µL per well. Subsequently, NLRP3 was activated by APOE peptide. The cell culture medium comprises: DMEM (brand: Gibco, Cat. No.: C12430500) + 10% fetal bovine serum (brand: Gibco, Cat. No.: 10099-141) + 1% sodium pyruvate (brand: Gibco, Cat. No.: 11360-070) + 1% penicillin-streptomycin solution (brand: Solarbio, Cat. No.: P1400). The J774A.1 mouse monocyte-macrophage cell line was purchased from the Cell Resource Center of the Institute of Basic Medical Sciences of Chinese Academy of Medical Sciences (Resource No. 1101MOU-PUMC000222). APOE2/3 peptide 1-151 was obtained through recombinant protein expression and purification by Biocells (Beijing) Biotech Co., Ltd. The procedures were as follows: the sequence (SEQ ID NO: 1) shown below was inserted into the pET-28A plasmid and transformed into BL-21(DE3) expression strain; the expression of target protein was induced with IPTG at a low temperature; after collecting the bacteria via centrifugation, ultrasonic disruption was performed; and after centrifugation, the supernatant was purified by nickel ion affinity chromatography (AKTA pure), and then the product was concentrated by ultrafiltration and identified by BCA+protein electrophoresis. Sequence: [formula]
Experimental groups: a negative control group, an APOE treatment control group, and an example compound experimental group.
After the plated J774A.1 cells adhering to the plate, the culture medium was replaced. The culture medium of the APOE treatment control group was replaced with cell culture medium containing 30 µg/mL APOE peptide, the culture medium of the example compound experimental group was replaced with culture medium containing 30 µg/mL APOE peptide combined with the compounds, and the negative control group received cell culture medium. Then, all the groups were incubated overnight. 18 h later, the cell supernatants were collected for IL-1β detection.
Activation of NLRP3 by APOE peptide will result in release of mature IL-1β, and the release can be inhibited by NLRP3 inhibitors. Therefore, the relative change in the amount of IL-1β release may directly reflect NLRP3 inhibitory effect.
In this experimental example, effective inhibition refers to a reduction of 70% or more in the release amount, compared with the release amount of the positive control minus the negative control.

[3] = Mouse pharmacokinetics after intravenous administration (plasma and brain, LC-MS); assay type: in vivo; conditions: C57 mice, intravenous 5 mg/kg
Description: C57 mice were administered intravenously, at a dosage concentration of 5 mg/kg in each group. Retro-orbital blood collection was performed on the mice at 1 min, 30 min, 1 h, and 2 h post-dosing. The collected blood was centrifuged at 3000 rpm for 10 min at 4 °C to obtain plasma. Acetonitrile was added at a 1:3 volume ratio of plasma: acetonitrile to precipitate proteins. After centrifugation, the supernatant was collected and filtered. The concentration of the compound was detected using LC-MS (Agilent 1260-G6125, SIM mode). In addition, 2 h after drug injection, the mice were subjected to cardiac perfusion and then their brains were harvested. Following tissue homogenization and centrifugation, the supernatant was collected. Acetonitrile was added at a 1:3 volume ratio of supernatant: acetonitrile to precipitate proteins. After centrifugation, the supernatant was collected and filtered. The concentration of the compound was detected using LC-MS (Agilent 1260-G6125, SIM mode).
Experimental groups: a vehicle control group, and a dosing group.

[4] = J774.A1, 1 µM compound, LPS + 5 mM ATP or 10 µM Nig, compared with the positive control, read-out: inhibition of IL-1β release

T1 sequence (Q8R4B8 whole entry): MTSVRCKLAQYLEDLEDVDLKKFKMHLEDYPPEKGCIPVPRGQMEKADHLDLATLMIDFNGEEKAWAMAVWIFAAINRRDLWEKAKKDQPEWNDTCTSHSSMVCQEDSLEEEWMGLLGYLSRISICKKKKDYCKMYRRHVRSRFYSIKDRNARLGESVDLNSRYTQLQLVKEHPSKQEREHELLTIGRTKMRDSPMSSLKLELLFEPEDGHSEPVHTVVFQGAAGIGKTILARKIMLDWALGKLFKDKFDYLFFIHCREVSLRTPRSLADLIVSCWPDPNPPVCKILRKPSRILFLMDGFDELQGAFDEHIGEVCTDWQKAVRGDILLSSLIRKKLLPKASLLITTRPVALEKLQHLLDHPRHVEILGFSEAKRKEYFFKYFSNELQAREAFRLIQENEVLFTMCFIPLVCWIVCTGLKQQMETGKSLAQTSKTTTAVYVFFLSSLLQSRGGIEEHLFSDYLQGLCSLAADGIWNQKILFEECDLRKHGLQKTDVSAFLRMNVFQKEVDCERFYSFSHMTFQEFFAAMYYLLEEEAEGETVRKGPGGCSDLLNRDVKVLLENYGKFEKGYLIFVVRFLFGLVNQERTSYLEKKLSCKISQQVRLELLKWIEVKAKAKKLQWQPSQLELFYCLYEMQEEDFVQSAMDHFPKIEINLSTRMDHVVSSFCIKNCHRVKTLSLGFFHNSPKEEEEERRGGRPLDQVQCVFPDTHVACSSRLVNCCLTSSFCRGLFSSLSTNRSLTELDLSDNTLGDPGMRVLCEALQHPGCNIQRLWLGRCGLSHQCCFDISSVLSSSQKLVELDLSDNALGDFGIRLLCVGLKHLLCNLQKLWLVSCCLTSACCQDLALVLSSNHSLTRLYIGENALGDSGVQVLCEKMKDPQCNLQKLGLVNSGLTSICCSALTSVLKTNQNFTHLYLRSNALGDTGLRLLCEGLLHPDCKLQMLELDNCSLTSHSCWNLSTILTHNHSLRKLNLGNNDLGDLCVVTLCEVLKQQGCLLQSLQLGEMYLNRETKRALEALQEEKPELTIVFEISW

**Q.** Which inhibition at 1 µM [1, 4] does the source give for `CN(C)Cc1cc(S(=O)(=O)NC(=O)Nc2c3c(cc4c2CCC4)CCC3)ccc1OC(F)(F)F` [Example 9, 3-((dimethylamino)methyl)-N-((1,2,3,5,6,7-hexahydro-s-indacen-4-yl)carbamoyl)-4-(trifluoromethoxy)benzenesulfonamide] here?
**A.** Its inhibition at 1 µM is 20 to 80%.

**Q.** With `CN(C)Cc1ccc(F)c(S(=O)(=O)NC(=O)Nc2c3c(cc4c2CCC4)CCC3)c1` [Example 2, 5-((dimethylamino)methyl)-2-fluoro-N-((1,2,3,5,6,7-hexahydro-s-indacen-4-yl)carbamoyl)benzenesulfonamide] as the molecule, how does the inhibition at 1 µM [1, 4] read?
**A.** The inhibition at 1 µM was greater than 80%.

**Q.** Which inhibition at 10 µM [2] does the source give for `CN(C)Cc1cccc(S(=O)(=O)NC(=O)Nc2c3c(cc4c2CCC4)CCC3)c1[N+](=O)[O-]` [Example 18, 3-((dimethylamino)methyl)-N-((1,2,3,5,6,7-hexahydro-s-indacen-4-yl)carbamoyl)-2-nitrobenzenesulfonamide] here?
**A.** The inhibition at 10 µM was no less than 70%.

**Q.** What about the inhibition at 1 µM [1, 4] of the same molecule?
**A.** The inhibition at 1 µM was greater than 80%.

**Q.** Which inhibition at 1 µM [1, 4] does the source give for `CN(C)Cc1ccc(N)c(S(=O)(=O)NC(=O)Nc2c3c(cc4c2CCC4)CCC3)c1` [Example 12, 2-amino-5-((dimethylamino)methyl)-N-((1,2,3,5,6,7-hexahydro-s-indacen-4-yl)carbamoyl)benzenesulfonamide] here?
**A.** The inhibition at 1 µM was 20 to 80%.

**Q.** With `CN(C)Cc1cc(S(=O)(=O)NC(=O)Nc2c3c(cc4c2CCC4)CCC3)ccc1N` [Example 7, 4-amino-3-((dimethylamino)methyl)-N-((1,2,3,5,6,7-hexahydro-s-indacen-4-yl)carbamoyl)benzenesulfonamide] as the molecule, how does the inhibition at 1 µM [1, 4] read?
**A.** Its inhibition at 1 µM is greater than 80%.

**Q.** What does the source list for `COc1cc(F)c(S(=O)(=O)NC(=O)Nc2c3c(cc4c2CCC4)CCC3)cc1CN(C)C` [Example 20, 5-((dimethylamino)methyl)-2-fluoro-N-((1,2,3,5,6,7-hexahydro-s-indacen-4-yl)carbamoyl)-4-methoxybenzenesulfonamide]?
**A.** inhibition at 10 µM [2]: ≥ 70%; inhibition at 1 µM [1, 4]: > 80%

**Q.** For `COc1c(F)cc(S(=O)(=O)NC(=O)Nc2c3c(cc4c2CCC4)CCC3)cc1CN(C)C` [Example 16, 3-((dimethylamino)methyl)-5-fluoro-N-((1,2,3,5,6,7-hexahydro-s-indacen-4-yl)carbamoyl)-4-methoxybenzenesulfonamide], which inhibition at 1 µM [1, 4] is on record?
**A.** Its inhibition at 1 µM is 20 to 80%.

**Q.** With `CC(C)Oc1ccc(S(=O)(=O)NC(=O)Nc2c3c(cc4c2CCC4)CCC3)cc1CN(C)C` [Example 15, 3-((dimethylamino)methyl)-N-((1,2,3,5,6,7-hexahydro-s-indacen-4-yl)carbamoyl)-4-isopropoxybenzenesulfonamide] as the molecule, how does the inhibition at 1 µM [1, 4] read?
**A.** The inhibition at 1 µM was greater than 80%.

**Q.** Which concentration at 120 min ([3]; brain after cardiac perfusion, read-out: brain drug concentration at 120 min) does the source give for `CN1CCc2ccc(S(=O)(=O)NC(=O)Nc3c4c(cc5c3CCC5)CCC4)cc2C1` [Example 29, N-((1,2,3,5,6,7-hexahydro-s-indacen-4-yl)carbamoyl)-2-methyl-1,2,3,4-tetrahydroisoquinoline-7-sulfonamide] here?
**A.** Its concentration at 120 min is 197 ng/mL.

**Q.** And the half-life ([3]; plasma)?
**A.** The half-life was 1.65 h.

**Q.** And the AUC ([3]; plasma, read-out: area under the curve (AUC) from 1 to 120 min)?
**A.** Its AUC is 14900 ng·h/mL.

**Q.** Which inhibition at 1 µM [1, 4] does the source give for `COc1ccc(S(=O)(=O)NC(=O)Nc2c3c(cc4c2CCC4)CCC3)c(Cl)c1CN(C)C` [Example 28, 2-chloro-3-((dimethylamino)methyl)-N-((1,2,3,5,6,7-hexahydro-s-indacen-4-yl)carbamoyl)-4-methoxybenzenesulfonamide] here?
**A.** Its inhibition at 1 µM is greater than 80%.

**Q.** Which inhibition at 1 µM ([1]; J774.A1, read-out: inhibition of IL-1β release, 1 µM compound, LPS + 5 mM ATP or 10 µM Nig, compared with the positive control) does the source give for `CN(C)Cc1cc(S(=O)(=O)NC(=O)Nc2c3c(cc4c2CCC4)CCC3)ccc1OCc1ccccc1` [Example 4] here?
**A.** The inhibition at 1 µM was greater than 80%.

**Q.** With `CCN(CC)Cc1cc(S(=O)(=O)NC(=O)Nc2c3c(cc4c2CCC4)CCC3)ccc1OC` [Example 13] as the molecule, how does the “inhibition of IL-1β release” value ([1]; 1 µM compound, LPS + 5 mM ATP or 10 µM Nig, compared with the positive control) read?
**A.** Its value is “no inhibitory effect”.

**Q.** With `CCOc1ccc(S(=O)(=O)NC(=O)Nc2c3c(cc4c2CCC4)CCC3)cc1CN(C)C` [Example 14, 3-((dimethylamino)methyl)-4-ethoxy-N-((1,2,3,5,6,7-hexahydro-s-indacen-4-yl)carbamoyl)benzenesulfonamide] as the molecule, how does the inhibition at 10 µM [2] read?
**A.** The inhibition at 10 µM was no less than 70%.

**Q.** What about the inhibition at 1 µM [1, 4] of the same molecule?
**A.** The inhibition at 1 µM was greater than 80%.

**Q.** Which results are given for `CN(C)Cc1c(F)ccc(S(=O)(=O)NC(=O)Nc2c3c(cc4c2CCC4)CCC3)c1F` [Example 23, 3-((dimethylamino)methyl)-2,4-difluoro-N-((1,2,3,5,6,7-hexahydro-s-indacen-4-yl)carbamoyl)benzenesulfonamide]?
**A.** inhibition at 10 µM [2]: ≥ 70%; inhibition at 1 µM [1, 4]: > 80%

**Q.** With `CN(C)Cc1ccc([N+](=O)[O-])c(S(=O)(=O)NC(=O)Nc2c3c(cc4c2CCC4)CCC3)c1` [Example 11, 5-((dimethylamino)methyl)-N-((1,2,3,5,6,7-hexahydro-s-indacen-4-yl)carbamoyl)-2-nitrobenzenesulfonamide] as the molecule, how does the inhibition at 1 µM [1, 4] read?
**A.** Its inhibition at 1 µM is greater than 80%.

**Q.** For `CN(C)Cc1ccc(F)c(S(=O)(=O)NC(=O)Nc2c3c(cc4c2CCC4)CCC3)c1F` [Example 25, 3-((dimethylamino)methyl)-2,6-difluoro-N-((1,2,3,5,6,7-hexahydro-s-indacen-4-yl)carbamoyl)benzenesulfonamide], which inhibition at 10 µM [2] is on record?
**A.** Its inhibition at 10 µM is no less than 70%.

**Q.** What about the inhibition at 1 µM [1, 4] of the same molecule?
**A.** The inhibition at 1 µM was greater than 80%.

**Q.** For `CN(C)Cc1cc(S(=O)(=O)NC(=O)Nc2c3c(cc4c2CCC4)CCC3)ccc1Cl` [Example 8, 4-chloro-3-((dimethylamino)methyl)-N-((1,2,3,5,6,7-hexahydro-s-indacen-4-yl)carbamoyl)benzenesulfonamide], which inhibition at 1 µM [1, 4] is on record?
**A.** Its inhibition at 1 µM is 20 to 80%.

**Q.** Which inhibition at 1 µM [1, 4] does the source give for `CN(C)Cc1cc(S(=O)(=O)NC(=O)Nc2c3c(cc4c2CCC4)CCC3)ccc1F` [Example 6, 3-((dimethylamino)methyl)-4-fluoro-N-((1,2,3,5,6,7-hexahydro-s-indacen-4-yl)carbamoyl)benzenesulfonamide] here?
**A.** The inhibition at 1 µM was greater than 80%.

**Q.** Which inhibition at 10 µM [2] does the source give for `CN(C)Cc1cccc(S(=O)(=O)NC(=O)Nc2c3c(cc4c2CCC4)CCC3)c1F` [Example 24, 3-((dimethylamino)methyl)-2-fluoro-N-((1,2,3,5,6,7-hexahydro-s-indacen-4-yl)carbamoyl)benzenesulfonamide] here?
**A.** The inhibition at 10 µM was no less than 70%.

**Q.** And the inhibition at 1 µM [1, 4]?
**A.** The inhibition at 1 µM was greater than 80%.

**Q.** With `CN(C)Cc1ccc(Cl)c(S(=O)(=O)NC(=O)Nc2c3c(cc4c2CCC4)CCC3)c1` [Example 10, 2-chloro-5-((dimethylamino)methyl)-N-((1,2,3,5,6,7-hexahydro-s-indacen-4-yl)carbamoyl)benzenesulfonamide] as the molecule, how does the inhibition at 1 µM [1, 4] read?
**A.** The inhibition at 1 µM was greater than 80%.
